Consider 17 molecules from publication doi:10.1101/2025.10.23.684218v2, “Development of a dual chemical probe for the USP16 and HDAC6 zinc-finger ubiquitin-binding domain” (biorxiv, 2025).

Some results are limits rather than exact numbers.

In assay [1] the target is T1, USP16-UBD (USP16 25-185) (Homo sapiens, UniProt Q9Y5T5). As to the kind of experiment: SPR, steady state. It counts as binding.
Assay [2] addresses T1, USP16-UBD (USP16 25-185). As to the kind of experiment: biochemical. More on the design: SPR, steady-state binding to immobilised biotinylated UBD proteins. Particulars: read-out: SPR Kd µM (USP16).
In assay [3] the target is T2, HDAC6-UBD (HDAC6 1109-1215) (Homo sapiens, UniProt Q9UBN7).
T2 sequence (Q9UBN7 1109-1215): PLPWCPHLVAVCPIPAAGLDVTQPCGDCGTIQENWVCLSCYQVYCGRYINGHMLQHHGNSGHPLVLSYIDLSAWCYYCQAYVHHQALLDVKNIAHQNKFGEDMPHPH
The assay is described as follows: SPR, steady state. It counts as binding.

Assay [4] addresses T2, HDAC6-UBD (HDAC6 1109-1215). As to the kind of experiment: SPR, steady state. The assay is classed as binding. As to conditions: pH […] °C, […] DMSO.
In assay [5] the target is T1, USP16-UBD (USP16 25-185). As to the kind of experiment: SPR, steady state. The assay is classed as binding. As to conditions: pH […] °C, […] DMSO.
Assay [6] concerns the target T2, HDAC6-UBD (HDAC6 1109-1215). The assay is described as follows: biochemical. Also noted: SPR, steady-state binding to immobilised biotinylated UBD proteins. As to conditions: read-out: SPR Kd µM (HDAC6).

T1 sequence (Q9Y5T5 25-185): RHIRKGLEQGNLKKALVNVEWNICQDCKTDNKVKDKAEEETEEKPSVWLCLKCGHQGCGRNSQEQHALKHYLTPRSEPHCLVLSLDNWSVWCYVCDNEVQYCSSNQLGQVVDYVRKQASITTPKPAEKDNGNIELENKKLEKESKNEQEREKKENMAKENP

Regarding `COc1ccccc1CN(C)C(=O)Cn1c(CCC(=O)O)nc2c(Cl)cccc2c1=O` [compound 2], at USP16-UBD (USP16 25-185) [1], binding was characterised by a dissociation constant (Kd) of 5.6 ± 2.1 µM. Take `COc1ccccc1CNC(=O)Cn1c(CCC(=O)O)nc2ccccc2c1=O` [UBXXML264]: the Kd on USP16-UBD (USP16 25-185) [2] came out at 13 µM. Same read-out and setting: in the case of `COc1ccccc1CNC(=O)Cn1c(CCC(=O)O)nc2c(F)cccc2c1=O` [UBXXML299] it was 11 µM. `CCOc1ccccc1CNC(=O)Cn1c(CCC(=O)O)nc2c(Cl)cccc2c1=O` [compound 7, 3-(8-chloro-3-(2-((2-ethoxybenzyl)amino)-2-oxoethyl)-4-oxo-3,4-dihydroquinazolin-2-yl)propanoic acid]: the Kd at USP16-UBD (USP16 25-185) [1] came to 2.9 ± 1.2 µM; in assay [3], 0.65 ± 0.27 µM. Regarding `Cc1ccccc1CNC(=O)Cn1c(CCC(=O)O)nc2c(Cl)cccc2c1=O` [compound 8], the Kd at USP16-UBD (USP16 25-185) [1] is 1.8 ± 0.96 µM.

Turning to `CN(Cc1ccccc1F)C(=O)Cn1c(CCC(=O)O)nc2c(Cl)cccc2c1=O` [compound 11, 3-(8-Chloro-3-(2-((2-fluorobenzyl)(methyl)amino)-2-oxoethyl)-4-oxo-3,4-dihydroquinazolin-2-yl)propanoic Acid], the results for the Kd (at USP16-UBD (USP16 25-185) [1]; in assay [3]) were 2.5 ± 0.34 µM and 32.3 ± 18.2 µM, respectively. Regarding `COc1ccccc1C(C)N(C)C(=O)Cn1c(CCC(=O)O)nc2c(Cl)cccc2c1=O` (stereo not shown) [compound 4, 3-(8-chloro-3-(2-((1-(2-methoxyphenyl)ethyl)(methyl)amino)-2-oxoethyl)-4-oxo-3,4-dihydroquinazolin-2-yl)propanoic acid], the KD entry is “complete loss of binding activity for both USP16-UBD and HDAC6-UBD” in assay [4]; “complete loss of binding activity for both USP16-UBD and HDAC6-UBD” at USP16-UBD (USP16 25-185) [5]. Turning to `C[C@@H](c1ccccc1F)N(C)C(=O)Cn1c(CCC(=O)O)nc2c(Cl)cccc2c1=O` [compound 13, (S)-3-(8-Chloro-3-(2-((1-(2-fluorophenyl)ethyl)(methyl)amino)-2-oxoethyl)-4-oxo-3,4-dihydroquinazolin-2-yl)propanoic Acid], the Kd on USP16-UBD (USP16 25-185) [1] was 2.9 ± 0.49 µM; in assay [3], 31.3 ± 2.5 µM. On the same counts, the results for `C[C@H](NC(=O)Cn1c(CCC(=O)O)nc2c(Cl)cccc2c1=O)c1ccccc1F` [compound 12, (S)-3-(8-Chloro-3-(2-((1-(2-fluorophenyl)ethyl)amino)-2-oxoethyl)-4-oxo-3,4-dihydroquinazolin-2-yl)propanoic Acid] are 0.21 ± 0.03 µM and 0.05 ± 0.01 µM. On to `CC(NC(=O)Cn1c(CCC(=O)O)nc2c(Cl)cccc2c1=O)c1c(F)cccc1F` (stereo not shown) [compound 14, 3-(8-chloro-3-(2-((1-(2,6-difluorophenyl)ethyl)amino)-2-oxoethyl)-4-oxo-3,4-dihydroquinazolin-2-yl)propanoic acid], for which, on USP16-UBD (USP16 25-185) [1], the Kd was below 0.1 µM. Consider `Cn1c(CCC(=O)O)nc2ccccc2c1=O` [DATR31], for which the dissociation constant (Kd) on USP16-UBD (USP16 25-185) [2] amounted to 130 µM; in assay [6] it was 2.7 µM. As for `O=C(O)CCc1nc2c(Cl)cccc2c(=O)n1CC(=O)NCC1CCCOC1` (stereo not shown) [compound 6, 3-(8-Chloro-4-oxo-3-(2-oxo-2-(((tetrahydro-2H-pyran-3-yl)methyl)amino)ethyl)-3,4-dihydroquinazolin-2-yl)propanoic Acid], the results for the Kd (at USP16-UBD (USP16 25-185) [1]; in assay [3]) were 7.8 ± 0.99 µM and 2.1 ± 0.07 µM, respectively. Turning to `O=C(O)CCc1nc2ccccc2c(=O)n1CC(=O)NCc1ccccc1` [UBXXML47], the Kd at USP16-UBD (USP16 25-185) [2] turned out to be 11 µM. In turn, `O=C(O)CCc1nc2c(Cl)cccc2c(=O)n1CC(=O)NCc1ccccc1F` [compound 10] had a Kd at USP16-UBD (USP16 25-185) [1] of 0.4 ± 0.15 µM.

`COc1ccccc1C(C)NC(=O)Cn1c(CCC(=O)O)nc2c(Cl)cccc2c1=O` (stereo not shown) [compound 3, 3-(8-chloro-3-(2-((1-(2-methoxyphenyl)ethyl)amino)-2-oxoethyl)-4-oxo-3,4-dihydroquinazolin-2-yl)propanoic acid]: the Kd was 0.44 µM on USP16-UBD (USP16 25-185) [1] and 0.05 ± 0.03 µM in assay [3]. On USP16-UBD (USP16 25-185) [1], `O=C(O)CCc1nc2c(Cl)cccc2c(=O)n1CC(=O)NCc1ccccc1Cl` [compound 9] displayed a Kd of 1.2 ± 0.6 µM. In the case of `O=C(O)CCc1nc2ccccc2c(=O)n1CC(=O)NCC1CCCCC1` [UBXXML9098], the Kd on USP16-UBD (USP16 25-185) [2] was 4.8 µM.
